Experiment in all cases: NCI-60 cell line screen, 48 h
For test [1], the system named is OVCAR-3.
The test system of test [2] is HCC 2998.
The subject of test [3] is PC-3.
The subject of test [4] is NCI/ADR-RES.
The test system of test [5] is MCF7.
Test [6] has as its system UO-31.
In test [7] the test system is TK-10.
For test [8], the system named is SK-OV-3.
The test system of test [9] is Hs-578T.
The subject of test [10] is HL-60.
In test [11] the test system is T47D.
In test [12] the test system is NCI-H226.
In test [13] the test system is SK-MEL-5.
Test [14] has as its system SK-MEL-28.
For test [15], the system named is MDA-N.
The subject of test [16] is SF-539.
Test [17] relates to RXF 393.
For test [18], the system named is SR.
For test [19], the system named is Malme-3M.
In test [20] the test system is CCRF-CEM.

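In this assay, cells in 96-well plates receive the compound at five concentrations for 48 hours. Endpoints are linearly interpolated between the surrounding concentrations. GI50: concentration for 50% inhibition of growth.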 Active and inactive are the calls of the source. Cut-off read from the data, not from the text of the source: active = GI50 up to about 1.1 µM and inactive = higher. Bounds are passed on as bounds.

For the compound `O=C(O)/C=C/C(=O)Nc1nc[nH]n1`, the GI50 in test [1], in [2], in [3], in [4], in [5] and in test [6] was > 100 µM (inactive) each time. Moreover, the GI50 is > 100 µM (inactive) in test [7]; > 100 µM (inactive) in [8]; > 100 µM (inactive) in test [9]; 0.034 µM (active) in test [10]; > 100 µM (inactive) in test [11]; > 100 µM (inactive) in test [12]. Also, the GI50 in test [13], in [14], in [15], in test [16] and in [17] was > 100 µM (inactive) in each case.
Turning to `O=C1/C(=N/c2ccc(Nc3ccccc3)cc2)Oc2ccccc21`, the GI50 in [1] was 1.97 µM (inactive); in [18], 2.15 µM (inactive); in test [2], 8.26 µM (inactive); in test [3], 2.81 µM (inactive); in test [19] it was 2.99 µM (inactive); in [4] it was 1.9 µM (inactive). The GI50 in test [5] was 2.55 µM (inactive); in [6], 2.35 µM (inactive); in [7], 3.84 µM (inactive); in test [8], 5.98 µM (inactive); in test [10], 1.99 µM (inactive); in test [11] it was 3 µM (inactive). Also, the GI50 was 3.31 µM (inactive) in test [12]; 1.86 µM (inactive) in [20]; 4.68 µM (inactive) in test [13]; 4.19 µM (inactive) in [14]; 2.74 µM (inactive) in [15]; 3.27 µM (inactive) in [16]. Also, in test [17], the GI50 is 2.51 µM (inactive).
Take `CCCCc1ccc(Nc2nc(Cl)c3[nH]cnc3n2)cc1`: the GI50 was 14.8 µM (inactive) in [1]; 47.8 µM (inactive) in test [18]; 25.5 µM (inactive) in [2]; 19.3 µM (inactive) in test [19]; 19.3 µM (inactive) in [4]; 20.4 µM (inactive) in test [5]. Besides, the GI50 in [6] was 23.8 µM (inactive); in test [7] it was 22.8 µM (inactive); in [8], 34.3 µM (inactive); in [9], 24.5 µM (inactive); in test [10] it was 42.1 µM (inactive); in test [11], 11.2 µM (inactive). The GI50 in test [12] was 39.6 µM (inactive); in test [20], 39.1 µM (inactive); in [13], 16.7 µM (inactive); in [15], 21.9 µM (inactive); in test [16], 18.7 µM (inactive); in test [17] it was 17.1 µM (inactive).
On to `C/C(=N/NC(=S)N(C)C)c1ccccc1O`, for which the GI50 is 2.97 µM (inactive) in test [1]; 18.7 µM (inactive) in [2]; 10.1 µM (inactive) in test [3]; 7.26 µM (inactive) in [19]; 3.53 µM (inactive) in test [4]; 8.67 µM (inactive) in test [6]. Also, the GI50 is 13.3 µM (inactive) in [7]; > 44.5 µM (inactive) in test [8]; > 72.4 µM (inactive) in [9]; > 22.5 µM (inactive) in [10]; 14.5 µM (inactive) in test [11]; > 23.7 µM (inactive) in test [12]. The GI50 in [20] was 2.88 µM (inactive); in [13] it was 7.67 µM (inactive); in [14], 26.4 µM (inactive); in test [15], 11.9 µM (inactive); in [16], 8.91 µM (inactive); in [17] it was 23 µM (inactive).
For the compound `CC(C)(C)OC(=O)N1CCC23CCCC2C(=O)CC=C13` (configuration not stated), the GI50 in test [1], in [18], in [2], in test [3], in test [19] and in test [4] was > 100 µM (inactive) in each case. Moreover, the GI50 in test [5], in test [6], in [7], in test [8], in test [9] and in test [10] was > 100 µM (inactive) in each case. The GI50 was > 100 µM (inactive) in test [11]; > 100 µM (inactive) in test [12]; 37.9 µM (inactive) in [20]; > 100 µM (inactive) in test [13]; > 100 µM (inactive) in [14]; > 100 µM (inactive) in [16]. Besides, the GI50 in test [17] is > 100 µM (inactive).
As to `COc1ccc(Nc2[nH]c(C(C)=O)c(N)c2C(=S)Nc2ccccc2)cc1`, the GI50 in test [1] was > 100 µM (inactive); in test [18], 33.7 µM (inactive); in test [2], 28.2 µM (inactive); in test [19], 50.6 µM (inactive); in test [4], > 100 µM (inactive); in [5], 23.6 µM (inactive). Also, the GI50 in [6] was 51.6 µM (inactive); in [7], 68.9 µM (inactive); in test [8], > 100 µM (inactive); in [9], 74 µM (inactive); in test [10], 45.1 µM (inactive); in test [11] it was 56.8 µM (inactive). Further, the GI50 in [12] was 36.1 µM (inactive); in test [20], > 100 µM (inactive); in test [13], 37.2 µM (inactive); in test [14] it was 36.2 µM (inactive); in test [15], 76.4 µM (inactive); in test [16], 73.1 µM (inactive). Besides, the GI50 in test [17] is 16.6 µM (inactive).
For the compound `O=C(NCCCCCCNC(=O)c1cccc2ccccc12)Nc1cccc2ccccc12`, the GI50 in [1], in test [2], in test [3], in test [19], in [4] and in [5] was > 100 µM (inactive) throughout. The GI50 in test [6] is 45.7 µM (inactive); in test [7] it was > 100 µM (inactive); in [9], > 100 µM (inactive); in test [10] it was > 100 µM (inactive); in [11] it was > 100 µM (inactive); in test [20] it was > 100 µM (inactive). In addition, the GI50 in [13], in [14], in test [15], in [16] and in test [17] was > 100 µM (inactive) in each case.
For the compound `COc1ccc(NC(=O)C(=O)C(CC2C(=O)NC(=S)NC2=O)C(=O)c2ccc3ccccc3c2)c([N+](=O)[O-])c1` (configuration not stated), the GI50 in test [1], in [2], in test [3], in test [4], in test [5] and in [6] was > 100 µM (inactive) throughout. The GI50 in test [7], in test [8], in test [9], in [10], in [11] and in [12] was > 100 µM (inactive) throughout. The GI50 in test [20] is 8.99 µM (inactive); in [13], > 100 µM (inactive); in [14] it was > 100 µM (inactive); in test [15], > 100 µM (inactive); in [16], > 100 µM (inactive).
`Nc1ccc(-c2nc3ccccc3s2)cc1C(F)(F)F`: the GI50 in test [1] was 16.4 µM (inactive); in [3], 15.7 µM (inactive); in [19] it was 15.8 µM (inactive); in [4], 17.7 µM (inactive); in test [5], 1.52 µM (inactive); in [6] it was 14.7 µM (inactive). The GI50 was 13.1 µM (inactive) in test [7]; 16.6 µM (inactive) in test [8]; 20 µM (inactive) in test [9]; 12.5 µM (inactive) in test [10]; 5.31 µM (inactive) in test [11]; 21.1 µM (inactive) in test [20]. In addition, the GI50 in [13] is 15.5 µM (inactive); in [14], 17.3 µM (inactive); in test [15], 13.6 µM (inactive); in test [16], 18.7 µM (inactive); in [17] it was 9.08 µM (inactive).
As for `N=C(N)N/N=C\c1c(-c2ccccc2)nc2sccn12`, the GI50 in test [18] is 22.4 µM (inactive); in test [2], 4.54 µM (inactive); in test [3], 15.1 µM (inactive); in test [19], 16.3 µM (inactive); in test [4], 18.2 µM (inactive); in test [6], 17.8 µM (inactive). Further, the GI50 in test [7] was 17.4 µM (inactive); in test [8], 19 µM (inactive); in test [9] it was 14 µM (inactive); in [10] it was 25.8 µM (inactive); in [11] it was 14.3 µM (inactive); in test [12] it was 17.6 µM (inactive). The GI50 in [20] is 21.6 µM (inactive); in test [13], 15.6 µM (inactive); in test [14], 15.7 µM (inactive); in test [15], 14.1 µM (inactive); in [16] it was 16.5 µM (inactive); in [17], 13.4 µM (inactive).
Turning to `C/C=C(\C)C(=O)O[C@@H]1CC(C)(C)CC2C3=CCC4[C@]56CC[C@](O)(OC5)C(C)(C)C6CC[C@@]4(C)C3(C)CC[C@]21C(=O)O` (some centres not stated), the GI50 is 81.7 µM (inactive) in test [1]; > 100 µM (inactive) in test [2]; 39.3 µM (inactive) in [3]; > 100 µM (inactive) in [19]; > 100 µM (inactive) in [4]; > 100 µM (inactive) in test [5]. The GI50 was > 100 µM (inactive) in test [7]; > 100 µM (inactive) in [8]; > 100 µM (inactive) in test [9]; 28.4 µM (inactive) in test [10]; > 100 µM (inactive) in test [11]; > 100 µM (inactive) in test [12]. In addition, the GI50 in test [20], in test [13], in test [14], in test [15], in test [16] and in test [17] was > 100 µM (inactive) throughout.

For the origin of these results see ChEMBL document CHEMBL1201862, “PubChem BioAssay data set” (2004).
